Measurements: patent US20050282755A1, “Compositions having antimicrobial activity and uses thereof” (priority 2004, published 2005)
≈ marks a conversion by molar mass, not a printed value. Non-standard residues stand in square brackets, D forms with d. Residues, ends and D or L forms follow the SMILES beside them. *: point of attachment. Palmitoyl = CCCCCCCCCCCCCCCC(=O)*; Lauroyl = CCCCCCCCCCCC(=O)*; Hexanoyl = CCCCCC(=O)*

Legend:
Format in all cases: cell-based
[1] = test system: Escherichia coli ATCC 25922; assay: MIC, NCCLS M7-A6 broth microdilution (Table 9, no superscript); conditions: ATCC 25922
How it was run: (§1)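 Log-phase bacteria were added to wells containing peptide in cation-adjusted Mueller Hinton broth at a final 5×10^5 to 1×10^6 CFU/milliliter. Plates then sat overnight at 37° C. Wells were scored visually for turbidity against a peptide-free control.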

[2] = test system: Staphylococcus epidermidis ATCC 12228; assay: as above; conditions: ATCC 12228
How it was run: as §1

[3] = test system: Pseudomonas aeruginosa ATCC 27853; assay: as above; conditions: ATCC 27853
How it was run: as §1

Salmonella dublin (Lane) = assay: as above
How it was run: as §1

[4] = test system: Staphylococcus aureus ATCC 29213; assay: MIC, NCCLS M7-A6 broth microdilution, cation-adjusted Mueller Hinton broth (Table 9, no superscript); conditions: ATCC 29213
How it was run: as §1

Compound	MIC E. coli [1]	MIC S. epidermidis [2]	MIC P. aeruginosa [3]	MIC S. dublin (Salmonella dublin (Lane))	MIC S. aureus [4]
CCCCCCCCCCCCCCCC(=O)NCCCC[C@@H](NC(=O)[C@@H](CCCNC(=N)N)NC(=O)[C@@H](CC(C)C)NC(=O)[C@@H](Cc1ccccc1)NC(=O)[C@@H](CC(N)=O)NC(=O)[C@@H](CCCNC(=N)N)NC(=O)[C@@H](C)NC(=O)[C@H](NC(=O)[C@@H](CC(=O)O)NC(=O)[C@@H](CCCNC(=N)N)NC(=O)[C@@H](Cc1c[nH]c2ccccc12)NC(=O)[C@@H](CCCNC(=N)N)NC(=O)[C@@H](CO)NC(=O)[C@H](N)CCCNC(=N)N)C(C)C)C(N)=O [Peptide 196, H2N-rsrwrdvarnflrk(Palmitoyl)-NH2] (H-[dR][dS][dR][dW][dR][dD][dV][dA][dR][dN][dF][dL][dR][dK](Palmitoyl)-NH2)	>64 µg/mL	32 µg/mL (≈ 15.3 µM)	>64 µg/mL	64 µg/mL (≈ 30.5 µM)	64 µg/mL (≈ 30.5 µM)
CCCCCC(=O)N[C@H](CCCNC(=N)N)C(=O)N[C@H](CO)C(=O)N[C@H](CCCNC(=N)N)C(=O)N[C@H](Cc1c[nH]c2ccccc12)C(=O)N[C@H](CCCNC(=N)N)C(=O)N[C@H](CC(=O)O)C(=O)N[C@@H](C(=O)N[C@H](C)C(=O)N[C@H](CCCNC(=N)N)C(=O)N[C@H](CC(N)=O)C(=O)N[C@H](Cc1ccccc1)C(=O)N[C@H](CCSC)C(=O)N[C@H](CCCNC(=N)N)C(N)=O)C(C)C [Peptide 206, Hexyl-rsrwrdvarnfmr-NH2] (Hexanoyl-[dR][dS][dR][dW][dR][dD][dV][dA][dR][dN][dF][dM][dR]-NH2)	64 µg/mL (≈ 34.6 µM)	32 µg/mL (≈ 17.3 µM)	>64 µg/mL	>64 µg/mL	>64 µg/mL
CCCCCCCCCCCC(=O)N[C@H](CCCNC(=N)N)C(=O)N[C@H](C)C(=O)N[C@H](CCCNC(=N)N)C(=O)N[C@H](Cc1c[nH]c2ccccc12)C(=O)N[C@H](CCCNC(=N)N)C(=O)N[C@H](C)C(=O)N[C@@H](C(=O)N[C@H](C)C(=O)N[C@H](CCCNC(=N)N)C(=O)N[C@H](C)C(=O)N[C@H](Cc1ccccc1)C(=O)N[C@H](C)C(=O)N[C@H](CCCNC(=N)N)C(N)=O)C(C)C [Peptide 217, Lauryl-rarwravarafar-NH2] (Lauroyl-[dR][dA][dR][dW][dR][dA][dV][dA][dR][dA][dF][dA][dR]-NH2)	16 µg/mL (≈ 9.05 µM)	2 µg/mL (≈ 1.13 µM)	8 µg/mL (≈ 4.52 µM)	2 µg/mL (≈ 1.13 µM)	1 µg/mL (≈ 0.566 µM)
CCCCCCCCCCCC(=O)N[C@H](CCCNC(=N)N)C(=O)N[C@H](CO)C(=O)N[C@H](C)C(=O)N[C@H](Cc1c[nH]c2ccccc12)C(=O)N[C@H](CCCNC(=N)N)C(=O)N[C@H](CC(=O)O)C(=O)N[C@@H](C(=O)N[C@H](C)C(=O)N[C@H](CCCNC(=N)N)C(=O)N[C@H](CC(N)=O)C(=O)N[C@H](Cc1ccccc1)C(=O)N[C@H](CCSC)C(=O)N[C@H](CCCNC(=N)N)C(N)=O)C(C)C [Peptide 228, Lauryl-rsawrdvarnfmr-NH2] (Lauroyl-[dR][dS][dA][dW][dR][dD][dV][dA][dR][dN][dF][dM][dR]-NH2)	>64 µg/mL	16 µg/mL (≈ 8.67 µM)	>64 µg/mL	64 µg/mL (≈ 34.7 µM)	64 µg/mL (≈ 34.7 µM)
CCCCCCCCCCCC(=O)N[C@H](CCCNC(=N)N)C(=O)N[C@H](CO)C(=O)N[C@H](CCCNC(=N)N)C(=O)N[C@H](Cc1c[nH]c2ccccc12)C(=O)N[C@H](C)C(=O)N[C@H](CC(=O)O)C(=O)N[C@@H](C(=O)N[C@H](C)C(=O)N[C@H](CCCNC(=N)N)C(=O)N[C@H](CC(N)=O)C(=O)N[C@H](Cc1ccccc1)C(=O)N[C@H](CCSC)C(=O)N[C@H](CCCNC(=N)N)C(N)=O)C(C)C [Peptide 229, Lauryl-rsrwadvarnfmr-NH2] (Lauroyl-[dR][dS][dR][dW][dA][dD][dV][dA][dR][dN][dF][dM][dR]-NH2)	8 µg/mL (≈ 4.33 µM)	4 µg/mL (≈ 2.17 µM)	8 µg/mL (≈ 4.33 µM)	8 µg/mL (≈ 4.33 µM)	8 µg/mL (≈ 4.33 µM)
CCCCCCCCCCCC(=O)N[C@H](CCCNC(=N)N)C(=O)N[C@H](CO)C(=O)N[C@H](CCCNC(=N)N)C(=O)N[C@H](Cc1c[nH]c2ccccc12)C(=O)N[C@H](CCCNC(=N)N)C(=O)N[C@H](CC(=O)O)C(=O)N[C@@H](C(=O)N[C@H](C)C(=O)N[C@H](C)C(=O)N[C@H](CC(N)=O)C(=O)N[C@H](Cc1ccccc1)C(=O)N[C@H](CCSC)C(=O)N[C@H](CCCNC(=N)N)C(N)=O)C(C)C [Peptide 230, Lauryl-rsrwrdvaanfmr-NH2] (Lauroyl-[dR][dS][dR][dW][dR][dD][dV][dA][dA][dN][dF][dM][dR]-NH2)	>64 µg/mL	4 µg/mL (≈ 2.17 µM)	>64 µg/mL	>64 µg/mL	>64 µg/mL
CCCCCCCCCCCC(=O)N[C@H](CCCNC(=N)N)C(=O)N[C@H](CO)C(=O)N[C@H](CCCNC(=N)N)C(=O)N[C@H](Cc1c[nH]c2ccccc12)C(=O)N[C@H](CCCNC(=N)N)C(=O)N[C@H](CC(=O)O)C(=O)N[C@@H](C(=O)N[C@H](C)C(=O)N[C@H](CCCNC(=N)N)C(=O)N[C@H](CC(N)=O)C(=O)N[C@H](Cc1ccccc1)C(=O)N[C@H](CCSC)C(=O)N[C@H](C)C(N)=O)C(C)C [Peptide 231, Lauryl-rsrwrdvarnfma-NH2] (Lauroyl-[dR][dS][dR][dW][dR][dD][dV][dA][dR][dN][dF][dM][dA]-NH2)	>64 µg/mL	4 µg/mL (≈ 2.17 µM)	32 µg/mL (≈ 17.3 µM)	>64 µg/mL	32 µg/mL (≈ 17.3 µM)
CCCCCCCCCCCC(=O)N[C@H](CCCNC(=N)N)C(=O)N[C@H](CO)C(=O)N[C@H](CCCNC(=N)N)C(=O)N[C@H](CO)C(=O)N[C@H](CCCNC(=N)N)C(=O)N[C@H](CC(=O)O)C(=O)N[C@@H](C(=O)N[C@H](C)C(=O)N[C@H](CCCNC(=N)N)C(=O)N[C@H](CC(N)=O)C(=O)N[C@H](Cc1ccccc1)C(=O)N[C@H](CCSC)C(=O)N[C@H](CCCNC(=N)N)C(N)=O)C(C)C [Peptide 232, Lauryl-rsrsrdvarnfmr-NH2] (Lauroyl-[dR][dS][dR][dS][dR][dD][dV][dA][dR][dN][dF][dM][dR]-NH2)	>64 µg/mL	16 µg/mL (≈ 8.73 µM)	>64 µg/mL	>64 µg/mL	>64 µg/mL
CCCCCCCCCCCC(=O)N[C@H](CCCNC(=N)N)C(=O)N[C@H](CO)C(=O)N[C@H](CCCNC(=N)N)C(=O)N[C@H](Cc1c[nH]c2ccccc12)C(=O)N[C@H](CCCNC(=N)N)C(=O)N[C@H](CC(=O)O)C(=O)N[C@@H](C(=O)N[C@H](C)C(=O)N[C@H](CCCNC(=N)N)C(=O)N[C@H](CC(N)=O)C(=O)N[C@H](CO)C(=O)N[C@H](CCSC)C(=O)N[C@H](CCCNC(=N)N)C(N)=O)C(C)C [Peptide 234, Lauryl-rsrwrdvarnsmr-NH2] (Lauroyl-[dR][dS][dR][dW][dR][dD][dV][dA][dR][dN][dS][dM][dR]-NH2)	>64 µg/mL	16 µg/mL (≈ 8.55 µM)	>64 µg/mL	64 µg/mL (≈ 34.2 µM)	64 µg/mL (≈ 34.2 µM)
CCCCCCCCCCCC(=O)N[C@H](CCCNC(=N)N)C(=O)N[C@H](CO)C(=O)N[C@H](CCCNC(=N)N)C(=O)N[C@H](Cc1c[nH]c2ccccc12)C(=O)N[C@H](CCCNC(=N)N)C(=O)N[C@H](CC(=O)O)C(=O)N[C@@H](C(=O)N[C@H](C)C(=O)N[C@H](CCCNC(=N)N)C(=O)N[C@H](CC(N)=O)C(=O)N[C@H](Cc1ccccc1)C(=O)N[C@H](CO)C(=O)N[C@H](CCCNC(=N)N)C(N)=O)C(C)C [Peptide 235, Lauryl-rsrwrdvarnfsr-NH2] (Lauroyl-[dR][dS][dR][dW][dR][dD][dV][dA][dR][dN][dF][dS][dR]-NH2)	16 µg/mL (≈ 8.48 µM)	8 µg/mL (≈ 4.24 µM)	64 µg/mL (≈ 33.9 µM)	32 µg/mL (≈ 17 µM)	16 µg/mL (≈ 8.48 µM)
CCCCCCCCCCCC(=O)N[C@H](C)C(=O)N[C@H](CO)C(=O)N[C@H](CCCNC(=N)N)C(=O)N[C@H](Cc1c[nH]c2ccccc12)C(=O)N[C@H](CCCNC(=N)N)C(=O)N[C@H](CC(=O)O)C(=O)N[C@@H](C(=O)N[C@H](C)C(=O)N[C@H](CCCNC(=N)N)C(=O)N[C@H](CC(N)=O)C(=O)N[C@H](Cc1ccccc1)C(=O)N[C@H](CCSC)C(=O)N[C@H](CCCNC(=N)N)C(N)=O)C(C)C [Peptide 236, Lauryl-asrwrdvarnfmr-NH2] (Lauroyl-[dA][dS][dR][dW][dR][dD][dV][dA][dR][dN][dF][dM][dR]-NH2)	64 µg/mL (≈ 34.7 µM)	16 µg/mL (≈ 8.67 µM)	>64 µg/mL	>64 µg/mL	32 µg/mL (≈ 17.3 µM)
CCCCCCCCCCCC(=O)N[C@H](CCCNC(=N)N)C(=O)N[C@H](Cc1c[nH]c2ccccc12)C(=O)N[C@H](CCCNC(=N)N)C(=O)N[C@H](CC(=O)O)C(=O)N[C@H](CC(C)C)C(=O)N[C@H](C)C(=O)N[C@H](CCCNC(=N)N)C(N)=O [Peptide 244, Lauryl-rwrdlar-NH2] (Lauroyl-[dR][dW][dR][dD][dL][dA][dR]-NH2)	64 µg/mL (≈ 55.5 µM)	64 µg/mL (≈ 55.5 µM)	>64 µg/mL	>64 µg/mL	32 µg/mL (≈ 27.7 µM)
